Measurements from patent US12264134B2 (Merck Sharp & Dohme LLC, priority 2018, dated 2025).

How the values were obtained:
IDO1 [1] = molecular target: T1, IDO1 (Homo sapiens, UniProt P14902); test: IDO1 Cellular Assay in HeLa Cells Stimulated with IFNγ; assay type: cell-based; conditions: read-out: HeLa Cell Potency, IC50
IDO1 [2] = molecular target: T1, IDO1; test: IDO1 Human Whole blood Assay; assay type: cell-based; parameters: Human whole blood was drawn in sodium heparin coated tubes from healthy internal donors; from tissue; host or cells: human whole blood from healthy donors, stimulated with LPS and IFNγ; conditions: LPS and IFNγ stimulated, 18 h, read-out: Human Whole Blood Potency, IC50
How it was run: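 Heparinized healthy-donor human whole blood was preincubated 15 min with compound, then stimulated with LPS and IFNγ (100 ng/mL final) for 18 h at 37 °C. Plasma kynurenine was quantified by LC/MS/MS against a D6-kynurenine internal standard, and IC50s came from 4-parameter sigmoidal fits.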

T1 sequence (P14902 whole entry): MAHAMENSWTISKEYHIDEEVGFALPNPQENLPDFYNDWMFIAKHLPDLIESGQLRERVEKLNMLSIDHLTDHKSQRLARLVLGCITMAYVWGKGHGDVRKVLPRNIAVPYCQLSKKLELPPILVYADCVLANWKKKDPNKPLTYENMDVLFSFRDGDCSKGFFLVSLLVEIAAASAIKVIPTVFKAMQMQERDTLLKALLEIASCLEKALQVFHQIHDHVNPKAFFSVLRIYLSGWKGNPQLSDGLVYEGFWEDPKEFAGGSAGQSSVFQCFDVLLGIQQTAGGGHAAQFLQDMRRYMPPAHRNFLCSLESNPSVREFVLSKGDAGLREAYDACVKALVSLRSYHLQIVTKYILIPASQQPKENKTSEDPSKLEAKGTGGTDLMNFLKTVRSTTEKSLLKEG

SMILES | IC50 (IDO1 [1]) | IC50 (IDO1 [2])
Cc1c(F)ccc(N2CCN(C(=O)Cn3nc(C(=O)N4CCN(CC(N)=O)CC4)c4c3C[C@H]3C[C@@H]43)C3(CC3)C2)c1C [Example 322, 2-{4-[(3bR,4aR)-1-{2-[7-(4-fluoro-2,3-dimethylphenyl)-4,7-diazaspiro[2.5]octan-4-yl]-2-oxoethyl}-3b,4,4a,5-tetrahydro-1H-cyclopropa[3,4]cyclopenta[1,2-c]pyrazole-3-carbonyl]piperazin-1-yl}acetamide] | 1.6 nM | 1050 nM
Cc1c(F)ccc(N2CCN(C(=O)Cn3nc(C(=O)N4CCC(O)(CO)CC4)c4c3C[C@H]3C[C@@H]43)C3(CC3)C2)c1C [Example 323, 1-[7-(4-fluoro-2,3-dimethylphenyl)-4,7-diazaspiro[2.5]octan-4-yl]-2-{(3bR,4aR)-3-[4-hydroxy-4-(hydroxymethyl)piperidine-1-carbonyl]-3b,4,4a,5-tetrahydro-1H-cyclopropa[3,4]cyclopenta[1,2-c]pyrazol-1-yl}ethan-1-one] | 0.69 nM | 1800 nM
Cc1cccc(N2CCN(C(=O)Cn3nc(C(=O)N4CCC(O)C(F)C4)c4c3CCC4)C3(CC3)C2)c1C (stereo not drawn) [Example 325, 1-[7-(2,3-dimethylphenyl)-4,7-diazaspiro[2.5]octan-4-yl]-2-[3-(3-fluoro-4-hydroxy-piperidine-1-carbonyl)-5,6-dihydro-4H-cyclopenta[c]pyrazol-1-yl]ethanone] | 4.08 nM | 625 nM
Cc1c(Cl)cccc1N1CCN(C(=O)Cn2nc(C(=O)N3CCN(C(=O)CO)CC3)c3c2C[C@H]2C[C@@H]32)CC1 [Example 352, 1-(4-(3-chloro-2-methylphenyl)piperazin-1-yl)-2-((3bR,4aR)-3-(4-(2-hydroxyacetyl)piperazine-1-carbonyl)-3b,4,4a,5-tetrahydro-1H-cyclopropa[3,4]cyclopenta[1,2-c]pyrazol-1-yl)ethanone] | 1.17 nM | 79 nM
Cc1c(Cl)cccc1N1CCN(C(=O)Cn2nc(C(=O)N3CCC(O)CC3)c3c2CCC(F)(F)C3)CC1 [Example 379, 1-(4-(3-chloro-2-methylphenyl)piperazin-1-yl)-2-(5,5-difluoro-3-(4-hydroxypiperidine-1-carbonyl)-4,5,6,7-tetrahydro-1H-indazol-1-yl)ethan-1-one] | 3.25 nM | 172 nM
CC(=O)NC1CCN(C(=O)c2nn(CC(=O)N3CCN(c4cccc(Cl)c4C)CC3)c3c2CC(F)(F)CC3)CC1 [Example 380, N-(1-(1-(2-(4-(3-chloro-2-methylphenyl)piperazin-1-yl)-2-oxoethyl)-5,5-difluoro-4,5,6,7-tetrahydro-1H-indazole-3-carbonyl)piperidin-4-yl)acetamide] | 1.67 nM | 94 nM
Cc1c(Cl)cccc1N1CCN(C(=O)Cn2nc(C(=O)N3CC[C@H](O)[C@H](F)C3)c3c2CCC(F)(F)C3)CC1 [Example 381] | 4.85 nM | 598 nM
Cc1c(Cl)cccc1N1CCN(C(=O)Cn2nc(C(=O)N3CCN(C(=O)CO)CC3)c3c2CCC(F)(F)C3)CC1 [Example 384, 1-(4-(3-chloro-2-methylphenyl)piperazin-1-yl)-2-(5,5-difluoro-3-(4-(2-hydroxyacetyl)piperazine-1-carbonyl)-4,5,6,7-tetrahydro-1H-indazol-1-yl)ethan-1-one] | 5.32 nM | 249 nM

More lines, now with the values ahead:

IC50 (IDO1 [1]) | IC50 (IDO1 [2]) | SMILES
1.47 nM | 508 nM | Cc1c(F)ccc(N2CCN(C(=O)Cn3nc(C(=O)N4CCC(OCCO)CC4)c4c3C[C@H]3C[C@@H]43)C3(CC3)C2)c1C [Example 321, 1-[7-(4-fluoro-2,3-dimethylphenyl)-4,7-diazaspiro[2.5]octan-4-yl]-2-{(3bR,4aR)-3-[4-(2-hydroxyethoxy)piperidine-1-carbonyl]-3b,4,4a,5-tetrahydro-1H-cyclopropa[3,4]cyclopenta[1,2-c]pyrazol-1-yl}ethan-1-one]
84.5 nM | 9120 nM | Cc1cccc(N2CCN(C(=O)Cn3nc(C(=O)N4CC[C@H](O)[C@H](F)C4)c4c3C[C@H]3C[C@@H]43)C(C)(C)C2)c1C [Example 331, 1-[4-(2,3-dimethylphenyl)-2,2-dimethylpiperazin-1-yl]-2-{(3bR,4aR)-3-[(3R,4S)-3-fluoro-4-hydroxypiperidine-1-carbonyl]-3b,4,4a,5-tetrahydro-1H-cyclopropa[3,4]cyclopenta[1,2-c]pyrazol-1-yl}ethan-1-one]
70 nM | 9490 nM | Cc1cccc(N2CCN(C(=O)Cn3nc(C(=O)N4CCC(O)(CF)CC4)c4c3C[C@H]3C[C@@H]43)C(C)(C)C2)c1C [Example 332, 1-[4-(2,3-dimethylphenyl)-2,2-dimethylpiperazin-1-yl]-2-{(3bR,4aR)-3-[4-(fluoromethyl)-4-hydroxypiperidine-1-carbonyl]-3b,4,4a,5-tetrahydro-1H-cyclopropa[3,4]cyclopenta[1,2-c]pyrazol-1-yl}ethan-1-one]
8.73 nM | > 10000 nM | Cc1cccc(N2CCN(C(=O)Cn3nc(C(=O)N4CCC5(CO)CC4C5)c4c3C[C@H]3C[C@@H]43)C(C)(C)C2)c1C [Example 333, 1-[4-(2,3-dimethylphenyl)-2,2-dimethylpiperazin-1-yl]-2-{(3bR,4aR)-3-[5-(hydroxymethyl)-2-azabicyclo[3.1.1]heptane-2-carbonyl]-3b,4,4a,5-tetrahydro-1H-cyclopropa[3,4]cyclopenta[1,2-c]pyrazol-1-yl}ethan-1-one]
1.38 nM | 4070 nM | Cc1cccc(N2CCN(C(=O)Cn3nc(C(=O)N4CCC(O)CC4)c4c3C[C@H]3C[C@@H]43)[C@@H](C)C2)c1C [Example 334, 1-[(2S)-4-(2,3-dimethylphenyl)-2-methylpiperazin-1-yl]-2-[(3bR,4aR)-3-(4-hydroxypiperidine-1-carbonyl)-3b,4,4a,5-tetrahydro-1H-cyclopropa[3,4]cyclopenta[1,2-c]pyrazol-1-yl]ethan-1-one]
2.75 nM | 587 nM | Cc1cccc(N2CCN(C(=O)Cn3nc(C(=O)N4CCC(O)CC4)c4c3C[C@H]3C[C@@H]43)[C@H](C)C2)c1C [Example 335, 1-[(2R)-4-(2,3-dimethylphenyl)-2-methylpiperazin-1-yl]-2-[(3bR,4aR)-3-(4-hydroxypiperidine-1-carbonyl)-3b,4,4a,5-tetrahydro-1H-cyclopropa[3,4]cyclopenta[1,2-c]pyrazol-1-yl]ethan-1-one]
1.65 nM | 131 nM | Cc1c(N2CCN(C(=O)Cn3nc(C(=O)N4CCC(O)CC4)c4c3C[C@H]3C[C@@H]43)CC2)cccc1C(F)(F)F [Example 338, 2-((3bR,4aR)-3-(4-hydroxypiperidine-1-carbonyl)-3b,4,4a,5-tetrahydro-1H-cyclopropa[3,4]cyclopenta[1,2-c]pyrazol-1-yl)-1-(4-(2-methyl-3-(trifluoromethyl)phenyl)piperazin-1-yl)ethanone]
1.81 nM | 229 nM | Cc1c(N2CCN(C(=O)Cn3nc(C(=O)N4CC[C@@H](O)[C@@H](F)C4)c4c3C[C@H]3C[C@@H]43)CC2)cccc1C(F)(F)F [Example 339, 2-((3bR,4aR)-3-((3S,4R)-3-fluoro-4-hydroxypiperidine-1-carbonyl)-3b,4,4a,5-tetrahydro-1H-cyclopropa[3,4]cyclopenta[1,2-c]pyrazol-1-yl)-1-(4-(2-methyl-3-(trifluoromethyl)phenyl)piperazin-1-yl)ethanone]
0.94 nM | 829 nM | Cc1cccc(N2CCN(C(=O)Cn3nc(C(=O)N4CCN(C(=O)CO)CC4)c4c3C[C@H]3C[C@@H]43)C3(CC3)C2)c1C [Example 355, 1-(4-((3bR,4aR)-1-(2-(7-(2,3-dimethylphenyl)-4,7-diazaspiro[2.5]octan-4-yl)-2-oxoethyl)-3b,4,4a,5-tetrahydro-1H-cyclopropa[3,4]cyclopenta[1,2-c]pyrazole-3-carbonyl)piperazin-1-yl)-2-hydroxyethanone]
0.89 nM | 1870 nM | Cc1cccc(N2CCN(C(=O)Cn3nc(C(=O)N4CCC(O)CC4)c4c3C[C@H]3C[C@@H]43)C3(CC3)C2)c1C [Example 357, 1-(7-(2,3-dimethylphenyl)-4,7-diazaspiro[2.5]octan-4-yl)-2-((3bR,4aR)-3-(4-hydroxypiperidine-1-carbonyl)-3b,4,4a,5-tetrahydro-1H-cyclopropa[3,4]cyclopenta[1,2-c]pyrazol-1-yl)ethanone]
1.17 nM | 3870 nM | Cc1cccc(N2CCN(C(=O)Cn3nc(C(=O)N4CCO[C@@H](CO)C4)c4c3C[C@H]3C[C@@H]43)C3(CC3)C2)c1C [Example 360, 1-(7-(2,3-dimethylphenyl)-4,7-diazaspiro[2.5]octan-4-yl)-2-((3bR,4aR)-3-((R)-2-(hydroxymethyl)morpholine-4-carbonyl)-3b,4,4a,5-tetrahydro-1H-cyclopropa[3,4]cyclopenta[1,2-c]pyrazol-1-yl)ethanone]
0.8 nM | 335 nM | Cc1cccc(N2CCN(C(=O)Cn3nc(C(=O)N4CCC(F)(CO)CC4)c4c3C[C@H]3C[C@@H]43)C3(CC3)C2)c1C [Example 362, 1-(7-(2,3-dimethylphenyl)-4,7-diazaspiro[2.5]octan-4-yl)-2-((3bR,4aR)-3-(4-fluoro-4-(hydroxymethyl)piperidine-1-carbonyl)-3b,4,4a,5-tetrahydro-1H-cyclopropa[3,4]cyclopenta[1,2-c]pyrazol-1-yl)ethanone]
2.33 nM | 141 nM | Cc1c(Cl)cccc1N1CCN(C(=O)Cn2nc(C(=O)N3CCC(O)CC3)c3c2CCC(F)C3)CC1 (stereo not drawn) [Example 366, 1-(4-(3-chloro-2-methylphenyl)piperazin-1-yl)-2-(5-fluoro-3-(4-hydroxypiperidine-1-carbonyl)-4,5,6,7-tetrahydro-1H-indazol-1-yl)ethan-1-one]
